# According to patent US6562865B1, “Composition comprising a tramadol material and an anticonvulsant drug” (Ortho-McNeil Pharmaceutical, Inc., priority 1999, dated 2003):
# Like-named read-outs stand apart in the source and are kept apart here.
# Columns and labels:
# [1] = test system: hot plate latency response in mice; assay: Antinociceptive effect in the 48° C. Mouse Hot Plate Model; assay type: in vivo; conditions: for % Maximal Possible Effect: 1.5 hours
# Method: Mice were placed on a heated surface (48° C.) and the time interval (seconds) between placement and a shaking, licking, or tucking of the hind paw was recorded as the predrug latency response. This same procedure was repeated at various times after the test drug was administered p.o., 10 mL/kg.
# The 48° C. Mouse Hot Plate was used to calculate the % maximal possible effect (% MPE) according to the formula: [formula]
# The analysis of possible synergistic effect at each fixed ratio was determined as described by Tallarida, et al., above.
# [2] = test system: mechanical (tactile) allodynia in Chung Model rats; assay: Antiallodynic effect in the Chung Model (L5 spinal nerve ligation, paw withdrawal threshold with von Frey filaments); conditions: for ED50: Rattus norvegicus, po, read-out: ED50 (SEM) of drug alone
# Method: The antiallodynic effect of the composition of the present invention in the Chung Model is expressed in % MPE (Maximum Possible Effect).
# Pathogen-free, male albino Sprague-Dawley rats, 200 g, were purchased from Harlan Industries (Indianapolis, Ind.) and maintained on a 12-h light/dark cycle (lights on at 06:00 h) in a climate-controlled room with food and water available ad libitum.
# The rats were anesthetized with isoflurane inhalant anesthesia. The left lumbar spinal nerve at the level of L5 was tightly ligated (4-0 silk suture) distal to the dorsal root ganglion and prior to entrance into the sciatic nerve, as described by Kim and Chung. The incisions were closed and the rats were allowed to recover under conditions described above. This procedure results in mechanical allodynia in the left hind paw. The sham operation, when performed, consisted of a similar surgical procedure lacking only the final ligation of the spinal nerve. Mechanical (tactile) allodynia was assessed by recording the pressure at which the affected paw (ipsilateral to the site of nerve injury) was withdrawn from graded stimuli (von Frey filaments ranging from 4.0 to 148.1 mN) applied perpendicularly to the plantar surface of the paw (between the footpads) through wire-mesh observation cages. A paw withdrawal threshold (PWT) was determined by sequentially increasing and decreasing the stimulus strength and analyzing withdrawal data using a Dixon non-parametric test (Chaplan, et al). Normal rats, sham operated rats, and the contralateral paw of L5 ligated rats withstand at least 148.1 mN (equivalent to 15 g) of pressure without responding.
# The dosing materials were all prepared in the vehicle, a suspension of 0.5% hydroxypropyl methylcellulose in distilled water; drug weights were calculated as the free base. The tramadol solution was prepared first, and the appropriate volume of this solution was added to a neat amount of the anticonvulsant to give the final dosing suspension. Drug weights were calculated as the free base, and the ratios used were based on the respective ED50 values of tramadol and the anticonvulsant. The necessary doses for each ratio were prepared separately and dosed orally in a volume of 10 mL/kg per rat.
# The Chung Model rats were all dosed orally with the composition comprising a combination of tramadol hydrochloride (calculated as the base) and the anticonvulsant drug (calculated as the base) or the composition of each agent separately dissolved in distilled water or dissolved in a suspension of 0.5% hydroxypropyl methylcellulose in distilled water. The dosing volume was 10 mL/kg.
# The rats were intubated with various doses of tramadol hydrochloride alone, anticonvulsant drug alone, combined doses of tramadol hydrochloride and anticonvulsant or vehicle such as distilled water or a suspension of 0.5% hydroxypropyl methylcellulose in distilled water.
# Within a certain time after the oral administration of tramadol hydrochloride alone, the anticonvulsant drug alone, the composition comprising a combination of tramadol hydrochloride and the anticonvulsant drug or vehicle alone, the PWT test was commenced. Each rat was used in the evaluation of only a single dose-ratio.
# The analysis of possible synergistic effect for the compositions at each fixed ratio was determined (R. J. Tallarida, et al., Life Sci., 1989, 45, 947). This procedure involves the determination of the total amount in the mixture that is required to produce a specified synergistic antiallodynic effect at the 50% dose level (that is, the ED50mix or Zmix) and the corresponding total amount that would be expected under simple additivity (ED50add or Zadd). Where it is established that Zmix<Zadd for a specific fixed-ratio, then that composition has a synergistic antiallodynic effect. Both the quantities ED50mix and ED50add are random variables.
# [3] = drug alone 30 mg/kg p.o., 1 hour
# [4] = drug alone 50 mg/kg p.o., 2 hours
# [5] = drug alone 60 mg/kg p.o., 1 hour
# [6] = drug alone 75 mg/kg p.o., 2 hours
# [7] = drug alone 90 mg/kg p.o., 1 hour
# [8] = drug alone 100 mg/kg p.o., 2 hours
# [9] = drug alone 125 mg/kg p.o., 2 hours
# [10] = drug alone 150 mg/kg p.o., 2 hours
# [11] = drug alone 250 mg/kg p.o., 2 hours
# [12] = drug alone 500 mg/kg p.o., 2 hours
# [13] = drug alone 25 mg/kg p.o., 2 hours
Compound,% Maximal Possible Effect ([1]; drug alone 10 mg/kg p.o.),% Maximal Possible Effect ([1]; drug alone 30 mg/kg p.o.),ED50 ([2]; 1 h),ED50 ([2]; 2 h),"% MPE [2, 3]","% MPE [2, 4]","% MPE [2, 5]","% MPE [2, 6]","% MPE [2, 7]","% MPE [2, 8]","% MPE [2, 9]","% MPE [2, 10]","% MPE [2, 11]","% MPE [2, 12]","% MPE [2, 13]",also measured
"COc1cccc(C2(O)CCCCC2CN(C)C)c1 (single isomer, unassigned) [Tramadol, (1R,2R or 1S,2S)-2-[(dimethylamino)methyl]-1-(3-methoxyphenyl)cyclohexanol]",5.83%,37.74%,48.6 mg/kg,94.5 mg/kg,25.70 % MPE,3.77 % MPE,40.96 % MPE,20.62 % MPE,73.61 % MPE,45.38 % MPE,74.29 % MPE,100 % MPE,–,–,–,"ED50 ([1]; Mus musculus, po, 1.5 h, p.o., 48° C. hot plate, read-out: ED50 (SEM) at 1.5 Hours): 35.1 mg/kg; % Maximal Possible Effect ([1]; drug alone 100 mg/kg p.o.): 86.62%; % Maximal Possible Effect ([1]; drug alone 300 mg/kg p.o.): 100%; antinociceptive effect in dose-response study ([1]; p.o., 48° C. hot plate): dose-dependent antinociceptive effect; antinociceptive effect at the higher doses ([1]; p.o., 48° C. hot plate, higher doses): Full antinociceptive effect; % MPE ([2]; drug alone 10 mg/kg p.o., 1 hour): 16.79 % MPE; % MPE ([2]; drug alone 120 mg/kg p.o., 1 hour): 84.05 % MPE"
NCC1(CC(=O)O)CCCCC1 [Gabapentin],–,–,–,440 mg/kg,–,–,–,–,–,7.31 % MPE,–,–,15.62 % MPE,54.26 % MPE,–,"% MPE ([2]; drug alone 750 mg/kg p.o., 2 hours): 67.95 % MPE; % MPE ([2]; drug alone 1000 mg/kg p.o., 2 hours): 85.34 % MPE"
Nc1nnc(-c2cccc(Cl)c2Cl)c(N)n1 [Lamotrigine],–,–,–,75.5 mg/kg,–,21.95 % MPE,–,48.69 % MPE,–,–,75.09 % MPE,83.51 % MPE,–,–,5.48 % MPE,–
"NC(=O)OC[C@@H](O)c1ccccc1Cl [RWJ-333369, 1,2-ethanediol, 1-(2-chlorophenyl)-, 2-carbamate, (S)-]",–,–,77.4 mg/kg,–,5.57 % MPE,–,30.43 % MPE,–,57.01 % MPE,–,–,–,–,–,–,"% MPE ([2]; drug alone 45 mg/kg p.o., 1 hour): 23.01 % MPE; % MPE ([2]; drug alone 75 mg/kg p.o., 1 hour): 54.54 % MPE"
"CC1(C)O[C@@H]2[C@@H](CO[C@@]3(COS(N)(=O)=O)OC(C)(C)O[C@@H]23)O1 [Topiramate, 2,3,4,5-bis-O-(1-methylethylidene)-β-D-fructopyranose sulfamates]",0.82%,9.71%,–,98 mg/kg,–,26.58 % MPE,–,–,–,56.42 % MPE,–,–,76.51 % MPE,94.38 % MPE,11.54 % MPE,–
